This is an account of results in ChEMBL document CHEMBL1201862, “PubChem BioAssay data set” (2004).

The target of test [1] is DNA damage-inducible transcript 3 protein (Mus musculus, UniProt P35639). Format: functional, Cricetulus griseus.
The target of the next test is T1, Coagulation factor XII (Homo sapiens, UniProt P00748).
T1 sequence (P00748 whole entry): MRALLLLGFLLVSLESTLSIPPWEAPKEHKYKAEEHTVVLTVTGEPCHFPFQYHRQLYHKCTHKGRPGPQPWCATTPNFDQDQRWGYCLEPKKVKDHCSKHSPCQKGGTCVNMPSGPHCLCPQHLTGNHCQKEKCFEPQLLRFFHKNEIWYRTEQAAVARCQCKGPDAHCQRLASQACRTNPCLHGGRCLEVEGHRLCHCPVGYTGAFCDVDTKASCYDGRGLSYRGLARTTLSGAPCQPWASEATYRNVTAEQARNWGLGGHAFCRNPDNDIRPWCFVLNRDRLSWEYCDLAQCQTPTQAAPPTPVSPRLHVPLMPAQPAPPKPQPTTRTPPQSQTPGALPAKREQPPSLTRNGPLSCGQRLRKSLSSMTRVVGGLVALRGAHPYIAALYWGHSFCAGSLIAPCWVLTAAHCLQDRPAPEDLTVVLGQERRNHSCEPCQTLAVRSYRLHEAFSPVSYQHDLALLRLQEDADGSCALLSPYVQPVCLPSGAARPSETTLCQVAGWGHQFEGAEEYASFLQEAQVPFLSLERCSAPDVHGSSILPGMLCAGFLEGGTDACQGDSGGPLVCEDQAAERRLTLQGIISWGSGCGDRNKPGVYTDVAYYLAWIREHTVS
The test is described as follows: activated coagulation factor XII inhibitor potency, concentration-effect curve, cell-free (AID 716). The format is functional.

Another test concerns the target Troponin, cardiac muscle (Homo sapiens, UniProt P19429+P45379+P63316). The test is described as follows: Fluorescence-based biochemical high throughput dose response assay for activators of the calcium sensitivity of cardiac Regulated Thin Filaments (RTF). [Related pubchem assays (depositor defined):AID493008, AID493018, AID504382, AID504383]. Format: protein-complex assay.

Test [2] deals with Induced myeloid leukemia cell differentiation protein Mcl-1 (Homo sapiens, UniProt Q07820). Format: functional.
Test [3] addresses T2, Tyrosine-protein phosphatase non-receptor type 7 (Homo sapiens, UniProt P35236).
T2 sequence (P35236 whole entry): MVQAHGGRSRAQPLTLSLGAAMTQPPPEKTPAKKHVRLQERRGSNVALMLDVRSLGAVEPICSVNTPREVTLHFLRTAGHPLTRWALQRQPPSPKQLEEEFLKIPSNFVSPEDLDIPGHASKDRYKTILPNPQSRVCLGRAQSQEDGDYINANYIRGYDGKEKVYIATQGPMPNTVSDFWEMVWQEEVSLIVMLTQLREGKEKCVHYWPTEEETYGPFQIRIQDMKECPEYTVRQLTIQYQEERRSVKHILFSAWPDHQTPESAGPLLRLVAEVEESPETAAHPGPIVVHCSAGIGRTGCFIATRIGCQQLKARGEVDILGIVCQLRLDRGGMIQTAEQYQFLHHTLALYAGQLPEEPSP
The test is described as follows: redox-active compounds inhibiting HePTP phosphatase – biochemical, fluorescence, mechanism study (AID 2068). Format: functional.

Test [4] has as its target Eukaryotic translation initiation factor 4E (Mus musculus, UniProt P63073). The test is described as follows: blockers of eIF4G binding by eIF4E – biochemical, TR-FRET, dose response (AID 855).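 Note: potency for disrupting eIF4E binding to eIF4GI seen as loss of FRET.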 Format: functional. For orientation: Time-resolved FRET reads energy transfer from a long-lived donor to a nearby acceptor.
Test [5] concerns the target T3, Glutathione-S-transferase (Schistosoma japonicum, UniProt Q26513).
T3 sequence (Q26513 whole entry): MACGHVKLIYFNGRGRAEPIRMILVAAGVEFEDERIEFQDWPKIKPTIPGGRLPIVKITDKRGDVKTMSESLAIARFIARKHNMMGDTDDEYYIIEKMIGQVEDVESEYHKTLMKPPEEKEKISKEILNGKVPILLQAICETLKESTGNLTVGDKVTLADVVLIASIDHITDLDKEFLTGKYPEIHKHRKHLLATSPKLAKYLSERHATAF
The test is described as follows: GST-antibody interaction or FRET quenching – biochemical, TR-FRET, artefact control for Vif-APOBEC3G degradation inhibitor project, dose response (AID 1117362). The format is functional.

Molecules are shown by their SMILES. The source made the active and inactive calls.

Chain of Induced myeloid leukemia cell differentiation protein Mcl-1 (Q07820 whole entry): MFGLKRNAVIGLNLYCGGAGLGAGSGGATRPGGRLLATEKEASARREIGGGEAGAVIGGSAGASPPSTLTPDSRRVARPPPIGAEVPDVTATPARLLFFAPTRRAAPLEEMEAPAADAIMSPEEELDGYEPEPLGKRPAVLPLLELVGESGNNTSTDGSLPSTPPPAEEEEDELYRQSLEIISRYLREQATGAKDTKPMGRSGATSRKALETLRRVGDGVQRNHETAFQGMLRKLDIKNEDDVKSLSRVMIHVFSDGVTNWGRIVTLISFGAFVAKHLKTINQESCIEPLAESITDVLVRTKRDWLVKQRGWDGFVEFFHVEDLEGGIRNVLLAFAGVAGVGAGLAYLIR
Chain of DNA damage-inducible transcript 3 protein (P35639 whole entry): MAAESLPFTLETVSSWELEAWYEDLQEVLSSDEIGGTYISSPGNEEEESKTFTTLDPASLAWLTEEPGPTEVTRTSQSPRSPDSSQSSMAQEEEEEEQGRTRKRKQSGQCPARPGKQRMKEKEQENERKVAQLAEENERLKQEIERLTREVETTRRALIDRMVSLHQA
Chain of Eukaryotic translation initiation factor 4E (P63073 whole entry): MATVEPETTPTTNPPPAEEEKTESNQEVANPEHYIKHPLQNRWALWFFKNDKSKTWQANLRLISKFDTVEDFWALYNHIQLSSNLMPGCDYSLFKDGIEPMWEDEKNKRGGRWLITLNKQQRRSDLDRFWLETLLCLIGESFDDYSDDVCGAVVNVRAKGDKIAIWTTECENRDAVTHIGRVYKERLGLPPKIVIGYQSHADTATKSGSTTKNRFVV

Consider `Clc1ccc2[nH]c(-c3ccccc3)cc2c1`, for which the “Absolute IC50 (CHOP)” value in test [1] came out at 10 µM.
`Cn1c(COc2ccc(Cl)cc2)nc2ccccc2c1=O`: on Coagulation factor XII, the IC50 is > 50 µM (inactive).
As to `CC(=O)Oc1ccc(NC(=O)Cc2ccccc2)c(C(=O)O)c1`, the EC50 at Troponin, cardiac muscle is > 71.5 µM (inactive).
In the case of `O=C(NCCO)Nc1ccc2nc(-c3ccco3)c(-c3ccco3)nc2c1`, the IC50 was 0.579 µM (active) in test [2], 0.476 µM (active) in test [3], 50 µM (inactive) in test [4] and 48.5 µM (active) in test [5].
With `COCCn1c(SCC(N)=O)nnc1-c1c[nH]c2ccccc12`, the IC50 on Coagulation factor XII is > 50 µM (inactive).

For orientation: IC50 means the point on the concentration scale where inhibition reaches its midpoint. The term EC50 denotes the midpoint of the concentration-response curve.
